The target of the assay is T1, human heparanase (Homo sapiens, UniProt Q9Y251).
T1 construct: purchased Apollo Scientific, Cheshire UK
T1 sequence (Q9Y251 158-543 limits assumed): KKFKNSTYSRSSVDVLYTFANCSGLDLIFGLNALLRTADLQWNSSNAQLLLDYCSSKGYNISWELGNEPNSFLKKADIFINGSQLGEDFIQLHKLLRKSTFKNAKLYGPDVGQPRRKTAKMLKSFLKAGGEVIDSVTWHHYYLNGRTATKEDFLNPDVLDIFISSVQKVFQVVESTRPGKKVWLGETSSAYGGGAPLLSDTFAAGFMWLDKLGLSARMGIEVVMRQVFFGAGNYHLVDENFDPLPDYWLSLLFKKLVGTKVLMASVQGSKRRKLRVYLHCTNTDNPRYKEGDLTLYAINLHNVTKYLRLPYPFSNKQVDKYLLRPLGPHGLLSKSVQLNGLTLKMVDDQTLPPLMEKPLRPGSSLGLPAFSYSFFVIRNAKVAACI
T1 sequence (Q9Y251 36-109 limits assumed): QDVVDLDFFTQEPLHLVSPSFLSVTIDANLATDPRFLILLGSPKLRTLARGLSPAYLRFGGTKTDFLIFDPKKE
The experiment in a line: Heparanase inhibition assay (biotinylated heparan sulfate degradation, CBD-FGF binding, avidin-POD detection; modified Genway kit). The following applies: recombinant human heparanase; for IC50: mean of three readings ± standard error, read-out: IC50 (n=3) against human heparanase. The format is biochemical.

Each structure is given as a SMILES string. Some results are limits rather than exact numbers.

From article PMC3832595, “Synthesis of a Pseudo-Disaccharide Library and Its Application to the Characterisation of the Heparanase Catalytic Site” (PLoS ONE, 2013) come the findings set out here.

`NC1CC(CO)C(OC2OC(CO)C(O)C(O)C2O)CC1O` (stereo not shown) [8a]: the concentration for half-maximal inhibition (IC50) is 1200 ± 300 µM.

Turning to `NC1CC(CO)C(OC2OC(CO)C(O)C(O)C2O)CC1O` (stereo not shown) [8c], the “Inhibition of heparanase (result in words)” value is “no significant activity” and the IC50 was more than 10000 µM.

For `NC1CC(CO)C(OC2OC(CO)C(O)C(O)C2O)CC1O` (stereo not shown) [8d], the IC50 worked out at 800 ± 200 µM.

`NC1CC(CO)C(OC2OC(CO)C(O)C(O)C2O)CC1O` (stereo not shown) [8b]: the IC50 came out at 800 ± 200 µM.

For the molecule `CCCCOC1CC(O)C(N)CC1CO` (stereo not shown) [compound 11], the “Inhibition of heparanase (result in words)” value was “no significant inhibition” and the IC50 was more than 10000 µM.

By IC50 is commonly meant the concentration that inhibits the measured activity by half.
